{"source": "patent US5132402A", "about": "“Adsorbent, method for production thereof, and method for use thereof” (Agency of Industrial Science and Technology, priority 1987, dated 1992)", "assay": "Solubility of the peptide in the phosphate buffer solution used for immobilization", "assay_type": "physicochemical", "conditions": "phosphate buffer solution (0.02 mol/liter) of pH 7.4", "procedure": "(a) The immobilization procedure of Example 2(a) was repeated, except that 20 mg of the peptide obtained in Synthesizing Example 18 was used in place of 20 mg of the peptide obtained in Synthesizing Example 2.", "note": "Where a SMILES comes first, the peptide text is derived from it. Bridges are numbered along the chain shown (N, C = ends).", "data": [{"smiles": "CC(C)C[C@H](NC(=O)[C@H](Cc1ccc(O)cc1)NC(=O)[C@@H]1CCCN1C(=O)[C@@H](NC(=O)[C@H](CC(=O)O)NC(=O)[C@@H]1CCCN1C(=O)[C@@H]1CSSC[C@H](NC(=O)[C@@H](NC(=O)[C@H](Cc2ccc(O)cc2)NC(=O)[C@H](Cc2ccc(O)cc2)NC(=O)[C@@H](NC(=O)[C@H](Cc2c[nH]c3ccccc23)NC(=O)[C@H](Cc2c[nH]cn2)NC(=O)[C@H](CCCCN)NC(=O)[C@H](Cc2c[nH]c3ccccc23)NC(=O)CNC(=O)[C@H](CC(C)C)NC(=O)[C@@H](N)CC(C)C)C(C)C)[C@@H](C)O)C(=O)N1)[C@@H](C)O)C(=O)N[C@@H](CC(=O)O)C(=O)O", "note": "[Synthesizing Example 18] (H-LLGWKHWVYYTCCPDTPYLD-OH; disulfide 12-13)", "values": [{"measurement": "solubility in the phosphate buffer solution", "result": "low solubility"}]}]}
